# Like-named read-outs stand apart in the source and are kept apart here.
# Columns and labels:
# [1] = Pharmacokinetics in rats; format: in vivo
# Procedure: The pharmacokinetics of ABT-199 and representative Compounds of the Disclosure were evaluated in rats at an IV dose of 2 mg/kg and an oral dose of 20 mg/kg.
# [2] = system: RS4;11 cells; assay: RS4;11 cell viability, CCK-8 assay; format: cell-based; details: Homo sapiens, RS4-11, 96 h, CCK-8, 4 days, read-out: RS4, 11 IC50 (Bcl-2 dependent)
# Procedure: RS4;11 cells were obtained from American Type Culture Collection (ATCC). They were used within three months of thawing fresh vials. Cells were maintained in the recommended culture medium with 10% FBS at 37° C. and an atmosphere of 5% CO2.
# The effect of representative Compounds of the Disclosure on cell viability was determined using Cell Counting Kit-8 (CCK-8) assay (Dojindo, Rockville, Md.) according to the manufacturer's instructions. 200 μL of a RS4;11 cell suspension (10000 cells/well) in culture medium were seeded into 96-well plates and cultured overnight. Each tested compound was serially diluted in culture medium, and 20 μL of the compound dilution was added to the corresponding well of the cell plate. After the addition of the tested compound, the cells were incubated at 37° C. in an atmosphere of 5% CO2 for 4 days. At the end of 4 days, 10 μL of CCK-8 solution was added to each well of the plate and incubated for 1-4 hours. The plates were read at 450 nm on the microplate spectrophotometer (Epoch2, BioTek). The readings were normalized to the vehicle cells, and the IC50 was calculated by nonlinear regression analysis using GraphPad Prism 5 software.
# [3] = system: MV4;11 cell line; assay: MV4;11 inhibition; format: cell-based
structure (smiles),measurement,setting,value
"CC1(C)CCC(CN2CCN(c3ccc(C(=O)NS(=O)(=O)c4ccc(NCC5CCOCC5)c([N+](=O)[O-])c4)c(Oc4cnc5[nH]ccc5c4)c3)CC2)=C(c2ccc(Cl)cc2)C1 [ABT-199, Venetoclax, reference compound]",AUC0-∞ IV,[1]; IV 2 mg/kg,5446 n · gh/mL
same,AUC0-∞ PO,[1]; oral 20 mg/kg,20812 n · gh/mL
same,F(AUC0-t),[1]; oral 20 mg/kg vs IV 2 mg/kg,38.2%
same,MRT inf,"[1]; rat, in vivo, IV 2 mg/kg",1.23 h
same,AUC(0-t),"[1]; rat, in vivo, IV 2 mg/kg, read-out: AUC0-t IV",5440 ng·h/mL
same,clearance,"[1]; rat, in vivo, IV 2 mg/kg, read-out: CL (iv) (converted)",6.57 mL/min/kg
same,Cmax,"[1]; rat, in vivo, IV 2 mg/kg, read-out: Cmax IV",8740 ng/mL
same,Tmax,"[1]; rat, in vivo, IV 2 mg/kg, read-out: Tmax IV",0.083 h
same,Vd,"[1]; rat, in vivo, IV 2 mg/kg, read-out: Vss (iv)",0.496 L/kg
same,half-life,"[1]; rat, in vivo, IV 2 mg/kg, read-out: t1/2 IV (converted)",4.32 h
same,AUC(0-t),"[1]; rat, in vivo, oral 20 mg/kg, read-out: AUC0-t PO",20800 ng·h/mL
same,Cmax,"[1]; rat, in vivo, oral 20 mg/kg, read-out: Cmax PO",6000 ng/mL
same,Tmax,"[1]; rat, in vivo, oral 20 mg/kg, read-out: Tmax PO",1.67 h
same,half-life,"[1]; rat, in vivo, oral 20 mg/kg, read-out: t1/2 PO (converted)",3.22 h
"O=C(NS(=O)(=O)c1ccc(NC[C@@H]2COCCO2)c([N+](=O)[O-])c1)c1ccc(C2=CCN(CC3=C(c4ccc(Cl)cc4)CC4(CC3)COC4)CC2)cc1Oc1cnc2[nH]ccc2c1 [Cpd. No. 5, (R)-N-((4-(((1,4-dioxan-2-yl)methyl)amino)-3-nitrophenyl)sulfonyl)-2-((1H-pyrrolo[2,3-b]pyridin-5-yl)oxy)-4-(1-((6-(4-chlorophenyl)-2-oxaspiro[3.5]non-6-en-7-yl)methyl)-1,2,3,6-tetrahydropyridin-4-yl)benzamide]",IC50,[2],22 nM
"O=C(NS(=O)(=O)c1cc([N+](=O)[O-])n(CC2CCOCC2)c1)c1ccc(N2CCN(CC3=C(c4ccc(Cl)cc4)CC4(CCC4)CC3)CC2)cc1Oc1cnc2[nH]ccc2c1 [Cpd. No. 25, 2-((1H-pyrrolo[2,3-b]pyridin-5-yl)oxy)-4-(4-((6-(4-chlorophenyl)spiro[3.5]non-6-en-7-yl)methyl)piperazin-1-yl)-N-((5-nitro-1-((tetrahydro-2H-pyran-4-yl)methyl)-1H-pyrrol-3-yl)sulfonyl)benzamide]",IC50,"[3]; Homo sapiens, MV4-11",5150 nM
same,IC50,[2],1090 nM
"O=C(NS(=O)(=O)c1cc(F)c(NC[C@H]2COCCO2)c([N+](=O)[O-])c1)c1ccc(N2CCN(CC3=C(c4ccc(Cl)cc4)CC4(CCC4)CC3)CC2)cc1Oc1cnc2[nH]ccc2c1 [Cpd. No. 40, (S)-N-((4-(((1,4-dioxan-2-yl)methyl)amino)-3-fluoro-5-nitrophenyl)sulfonyl)-2-((1H-pyrrolo[2,3-b]pyridin-5-yl)oxy)-4-(4-((6-(4-chlorophenyl)spiro[3.5]non-6-en-7-yl)methyl)piperazin-1-yl)benzamide]",IC50,"[3]; Homo sapiens, MV4-11",2.46 nM
same,IC50,[2],1.4 nM
"O=C(NS(=O)(=O)c1cc([N+](=O)[O-])c(NC[C@H]2COCCO2)cc1F)c1ccc(N2CCN(CC3=C(c4ccc(Cl)cc4)CC4(CCC4)CC3)CC2)cc1Oc1cnc2[nH]ccc2c1 [Cpd. No. 44, (S)-N-((4-(((1,4-dioxan-2-yl)methyl)amino)-2-fluoro-5-nitrophenyl)sulfonyl)-2-((1H-pyrrolo[2,3-b]pyridin-5-yl)oxy)-4-(4-((6-(4-chlorophenyl)spiro[3.5]non-6-en-7-yl)methyl)piperazin-1-yl)benzamide]",IC50,[2],7160 nM
"O=C(NS(=O)(=O)c1ccc(NC[C@@H]2COCCO2)c([N+](=O)[O-])c1)c1ccc(N2CCN(CC3=C(c4ccc(Cl)cc4)CC4(CC3)COC4)CC2)cc1Oc1cnc2[nH]ccc2c1 [compound 8, (R)-N-((4-(((1,4-dioxan-2-yl)methyl)amino)-3-nitrophenyl)sulfonyl)-2-((1H-pyrrolo[2,3-b]pyridin-5-yl)oxy)-4-(4-((6-(4-chlorophenyl)-2-oxaspiro[3.5]non-6-en-7-yl)methyl)piperazin-1-yl)benzamide]",IC50,[2],3.7 nM
"O=C(NS(=O)(=O)c1ccc(NCC2CCOCC2)c([N+](=O)[O-])c1)c1ccc(C2=CCN(CC3=C(c4ccc(Cl)cc4)CC4(CC3)COC4)CC2)cc1Oc1cnc2[nH]ccc2c1 [compound 9, 2-((1H-pyrrolo[2,3-b]pyridin-5-yl)oxy)-4-(1-((6-(4-chlorophenyl)-2-oxaspiro[3.5]non-6-en-7-yl)methyl)-1,2,3,6-tetrahydropyridin-4-yl)-N-((3-nitro-4-(((tetrahydro-2H-pyran-4-yl)methyl)amino)phenyl)sulfonyl)benzamide]",IC50,[2],28 nM
"O=C(NS(=O)(=O)c1ccc(NC[C@@H]2COCCO2)c([N+](=O)[O-])c1)c1ccc(N2CCN(CC3=C(c4ccc(Cl)cc4)CC4(CCC4)CC3)CC2)cc1Oc1cnc2[nH]ccc2c1 [compound 13, (R)-N-((4-(((1,4-dioxan-2-yl)methyl)amino)-3-nitrophenyl)sulfonyl)-2-((1H-pyrrolo[2,3-b]pyridin-5-yl)oxy)-4-(4-((6-(4-chlorophenyl)spiro[3.5]non-6-en-7-yl)methyl)piperazin-1-yl)benzamide]",IC50,[2],2.8 nM
"COCCOCCn1nc2cc(S(=O)(=O)NC(=O)c3ccc(N4CCN(CC5=C(c6ccc(Cl)cc6)CC6(CCC6)CC5)CC4)cc3Oc3cnc4[nH]ccc4c3)cc([N+](=O)[O-])c2c1F [compound 22, 2-((1H-pyrrolo[2,3-b]pyridin-5-yl)oxy)-4-(4-((6-(4-chlorophenyl)spiro[3.5]non-6-en-7-yl)methyl)piperazin-1-yl)-N-((3-fluoro-2-(2-(2-methoxyethoxy)ethyl)-4-nitro-2H-indazol-6-yl)sulfonyl)benzamide]",IC50,"[3]; Homo sapiens, MV4-11",58.9 nM
same,IC50,[2],20 nM
"O=C(NS(=O)(=O)C1=CC2C(=O)N(C3CCOCC3)CC2C([N+](=O)[O-])=C1)c1ccc(N2CCN(CC3=C(c4ccc(Cl)cc4)CC4(CCC4)CC3)CC2)cc1Oc1cnc2[nH]ccc2c1 (stereo not drawn) [compound 23, 2-((1H-pyrrolo[2,3-b]pyridin-5-yl)oxy)-4-(4-((6-(4-chlorophenyl)spiro[3.5]non-6-en-7-yl)methyl)piperazin-1-yl)-N-((7-nitro-3-oxo-2-(tetrahydro-2H-pyran-4-yl)-2,3,3a,7a-tetrahydro-1H-isoindol-5-yl)sulfonyl)benzamide]",IC50,"[3]; Homo sapiens, MV4-11",54.6 nM
same,IC50,[2],19 nM
"O=C(NS(=O)(=O)c1cc([N+](=O)[O-])n(CCC2CCOCC2)c1)c1ccc(N2CCN(CC3=C(c4ccc(Cl)cc4)CC4(CCC4)CC3)CC2)cc1Oc1cnc2[nH]ccc2c1 [compound 24, 2-((1H-pyrrolo[2,3-b]pyridin-5-yl)oxy)-4-(4-((6-(4-chlorophenyl)spiro[3.5]non-6-en-7-yl)methyl)piperazin-1-yl)-N-((5-nitro-1-(2-(tetrahydro-2H-pyran-4-yl)ethyl)-1H-pyrrol-3-yl)sulfonyl)benzamide]",IC50,"[3]; Homo sapiens, MV4-11",243000 nM
"O=C(NS(=O)(=O)c1ccc(NC[C@H]2COCCO2)c([N+](=O)[O-])c1)c1cc(F)c(N2CCN(CC3=C(c4ccc(Cl)cc4)CC4(CCC4)CC3)CC2)cc1Oc1cnc2[nH]ccc2c1 [compound 26, (S)-N-((4-(((1,4-dioxan-2-yl)methyl)amino)-3-nitrophenyl)sulfonyl)-2-((1H-pyrrolo[2,3-b]pyridin-5-yl)oxy)-4-(4-((6-(4-chlorophenyl)spiro[3.5]non-6-en-7-yl)methyl)piperazin-1-yl)-5-fluorobenzamide]",IC50,[3],6710 nM
"O=C(NS(=O)(=O)c1ccc(NCC2CCOCC2)c([N+](=O)[O-])c1)c1ccc(N2CCN(CC3=C(c4ccc(Cl)cc4)CC4(CCC4)CC3)CC2)nc1Oc1cnc2[nH]ccc2c1 [compound 32, 2-((1H-pyrrolo[2,3-b]pyridin-5-yl)oxy)-6-(4-((6-(4-chlorophenyl)spiro[3.5]non-6-en-7-yl)methyl)piperazin-1-yl)-N-((3-nitro-4-(((tetrahydro-2H-pyran-4-yl)methyl)amino)phenyl)sulfonyl)nicotinamide]",IC50,[2],1380 nM

# Reference: patent US10221174B2, “N-(phenylsulfonyl)benzamides and related compounds as BCL-2 inhibitors” (THE REGENTS OF THE UNIVERSITY OF MICHIGAN, priority 2016, dated 2019)
